Reference: patent US20250032489A1, “MIXED LINEAGE KINASE INHIBITORS AND METHODS OF USE” (The U.S.A., as represented by the Secretary, Department of …, priority 2022, published 2025)
Like-named read-outs stand apart in the source and are kept apart here. Blank lines part the entries; values can stand above or below the compound they belong to. Where a SMILES comes first, the peptide text is derived from it. The star is where a group is joined. Cbz = O=C(OCc1ccccc1)*

Legend:
DLK = DLK (Homo sapiens (Human), UniProt Q12852); assay: KD determination, Eurofins DiscoveRx Kd-Elect; format: binding
Sequence of DLK (Q12852 whole entry): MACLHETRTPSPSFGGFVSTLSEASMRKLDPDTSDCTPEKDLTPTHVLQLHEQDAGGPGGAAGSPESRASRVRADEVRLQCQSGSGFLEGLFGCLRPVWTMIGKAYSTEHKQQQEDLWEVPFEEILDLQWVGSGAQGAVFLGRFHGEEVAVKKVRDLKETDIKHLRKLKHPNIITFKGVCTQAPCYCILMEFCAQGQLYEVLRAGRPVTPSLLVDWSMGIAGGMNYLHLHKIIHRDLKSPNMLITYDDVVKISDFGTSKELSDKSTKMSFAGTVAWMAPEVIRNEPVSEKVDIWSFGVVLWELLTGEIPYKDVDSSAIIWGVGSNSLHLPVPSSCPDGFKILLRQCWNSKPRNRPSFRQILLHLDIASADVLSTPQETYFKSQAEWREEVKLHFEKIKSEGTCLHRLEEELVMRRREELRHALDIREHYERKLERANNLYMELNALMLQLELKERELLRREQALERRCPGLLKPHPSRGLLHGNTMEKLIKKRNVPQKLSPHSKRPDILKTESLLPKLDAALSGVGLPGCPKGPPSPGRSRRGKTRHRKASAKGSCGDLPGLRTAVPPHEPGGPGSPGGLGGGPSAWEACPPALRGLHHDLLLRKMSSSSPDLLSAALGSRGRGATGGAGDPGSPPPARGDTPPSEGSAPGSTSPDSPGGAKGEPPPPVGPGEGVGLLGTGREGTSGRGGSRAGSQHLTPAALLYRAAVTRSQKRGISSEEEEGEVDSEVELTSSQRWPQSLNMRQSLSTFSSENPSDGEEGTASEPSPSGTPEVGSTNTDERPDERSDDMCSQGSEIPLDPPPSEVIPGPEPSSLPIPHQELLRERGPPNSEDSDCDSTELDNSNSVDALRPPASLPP
Description: (§1) Substituents were varied to improve binding affinity to LZK and selectivity over DLK. KD values were measured by Eurofins DiscoveRx using the Kd-Elect system. Parallel artificial membrane permeability assay (PAMPA) values were measured by Cyprotex.
(§2) KD values were calculated with a standard dose-response curve using the Hill equation: […]
(§3) The Hill Slope was set to −1. Curves were fitted using a non-linear least square fit with the Levenberg-Marquardt algorithm.

LZK [1] = target: T1, LZK (Homo sapiens (Human), UniProt O43283); assay: KD determination, Eurofins DiscoveRx Kd-Elect; format: binding
T1 sequence (O43283 whole entry): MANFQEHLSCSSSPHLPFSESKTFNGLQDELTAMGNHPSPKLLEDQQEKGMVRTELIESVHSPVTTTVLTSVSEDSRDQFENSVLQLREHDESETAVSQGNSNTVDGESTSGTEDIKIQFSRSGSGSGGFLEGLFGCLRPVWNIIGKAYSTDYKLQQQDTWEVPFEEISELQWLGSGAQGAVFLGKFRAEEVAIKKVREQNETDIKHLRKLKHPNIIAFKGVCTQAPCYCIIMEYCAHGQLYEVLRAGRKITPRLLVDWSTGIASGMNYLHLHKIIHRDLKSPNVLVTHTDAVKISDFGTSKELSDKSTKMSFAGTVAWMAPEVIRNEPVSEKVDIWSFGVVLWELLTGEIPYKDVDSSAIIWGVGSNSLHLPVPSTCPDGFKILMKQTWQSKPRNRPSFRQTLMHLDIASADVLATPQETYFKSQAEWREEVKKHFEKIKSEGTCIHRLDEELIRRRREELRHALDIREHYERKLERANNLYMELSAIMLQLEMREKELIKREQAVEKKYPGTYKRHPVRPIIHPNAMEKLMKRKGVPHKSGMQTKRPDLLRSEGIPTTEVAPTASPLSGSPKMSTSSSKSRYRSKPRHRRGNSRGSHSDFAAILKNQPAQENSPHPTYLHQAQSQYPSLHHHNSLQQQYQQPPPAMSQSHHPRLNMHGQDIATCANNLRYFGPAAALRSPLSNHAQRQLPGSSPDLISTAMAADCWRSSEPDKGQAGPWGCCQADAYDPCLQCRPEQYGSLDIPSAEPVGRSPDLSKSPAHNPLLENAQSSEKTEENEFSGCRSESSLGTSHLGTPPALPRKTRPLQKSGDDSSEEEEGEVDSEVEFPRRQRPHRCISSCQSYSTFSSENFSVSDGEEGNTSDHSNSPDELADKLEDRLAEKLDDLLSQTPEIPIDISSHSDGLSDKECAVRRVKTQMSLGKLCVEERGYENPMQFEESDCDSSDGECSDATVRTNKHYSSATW
Description: as §1, §2, §3

LZK [2] = target: T1, LZK; assay: Phospho-JNK ELISA in doxycycline-induced CAL33 cells expressing LZK; format: cell-based; settings: for Phospho-JNK levels: 1 μM LZK inhibitor, 1 hour, compared to GNE-3511 control
Source text: The ViraPower HiPerform T-REx Gateway Expression System (Invitrogen) was used to generate cells with tetracycline-inducible expression of LZK. In brief, wild-type (WT) or drug-resistant mutant (Q240S) LZK (cloned into pLenti6.3/TO/V5-DEST vector) and pLenti3.3/TR (for tetracycline repressor expression) were transfected into 293FT cells using Lipofectamine 2000 to generate lentiviral stock. Cell lines were generated by antibiotic selection (blasticidin [Gibco] and geneticin [Gibco]). Doxycycline (Sigma-Aldrich) was used at 1 μg/mL to induce LZK expression.
A PathScan® Phospho-SAPK/JNK (Thr183/Tyr185) Sandwich ELISA Assay (Cell Signaling Technology) was used for ELISA assays following the manufacturer's protocol. In general, 500,000 cells were plated and treated with doxycycline the following day where appropriate and incubated at 37° C. for 48 hours. Cells were treated with the drug compound or control in 5% FBS media for 1 hour. After appropriate treatment time, cells were lysed on ice with 1× Cell Lysis Buffer (Cell Signaling Technology) supplemented with phosphatase and protease inhibitors (Sigma). Each diluted cell lysate was added to Phospho-SAPK/JNK (Thr183/Tyr185)Rabbit mAb Coated microwells in triplicate and incubated overnight at 4° C. Samples were treated with the following antibodies and incubated at 37° C. for 1 hour and 30 minutes, respectively: Detection Antibody and HRP-Linked secondary antibody. Samples were washed between treatments using 1× Wash Buffer according to the manufacturer's protocol. TMB substrate was added to each well and incubated at 37° C. for 10 minutes. Following this, STOPsolution was added to each well and absorbance was measured at 450 nm using iMark™ Microplate Absorbance Reader (Bio-Rad). Graphs display relative phospho-JNK levels.

c-MYC = assay: Western blot of c-MYC abundance; format: cell-based; settings: CAL33 and BICR56 cells depleted of LZK for 48 hours, 10 μM for six hours
Description: Generally, cells were plated in six-well or 35-mm plates for 24 hours, after which doxycycline was added or treatment with specific inhibitor was administered using 5% FBS media for 48 hours. After appropriate treatment time, cells were washed with ice-cold phosphate-buffered saline without Ca and Mg (Quality Biological) and then lysed on ice with RIPA buffer ([…], 1.0% IGEPAL® CA-630, 0.5% sodium deoxycholate, 0.1% SDS, 50 mM Tris, pH 8.0) (Sigma-Aldrich) supplemented with protease inhibitor tablet (Sigma-Aldrich) and phosphatase inhibitor cocktails 2 and 3 (Sigma-Aldrich) followed by centrifugation at 15,000 rpm for 10 minutes at 4° C. Protein concentrations were determined from the cell lysate by using 660 nm Protein Assay Reagent (Pierce). Cell extracts were denatured, subjected to SDS-PAGE, transferred to PVDF membranes (Bio-Rad) and blocked for 2 hours using 5% bovine serum albumin (BSA) in phosphate-buffered saline and 0.1% Tween® 20 (PBS-T). The membranes were incubated with the specific antibodies overnight in 5% BSA/PBST at 4° C. followed by a 1 hour incubation with the appropriate horseradish peroxidase-conjugated secondary antibodies and signal was detected by chemiluminescence (Thermo Fisher).

OVCAR5 cells = assay: Colony formation assay; format: cell-based
Description: (§4) Crystal violet assays were used to assess relative cell growth and survival after treatment with specific compounds. In general, cells were plated in triplicate in 12-well plates for 24 hours before drug treatments were added using 10% FBS media. The plates were incubated for 14 days, with the media and drug being replaced every 48 hours. The cells were then washed with phosphate-buffered saline and fixed in ice-cold methanol before being stained with 0.5% crystal violet (Sigma-Aldrich) in 25% methanol. Images were taken using a ChemiDoc MP Imaging System (Bio Rad), and for quantification, the crystal violet stain was dissolved in 33% acetic acid, incubated for 20 minutes with shaking, and read at 595 nm using iMark™ Microplate Absorbance Reader (Bio-Rad). Graphs display percent colony formation relative to the DMSO-treated control sample.

[3] = PAMPA (parallel artificial membrane permeability assay); format: in vitro ADME
Description: as §1

KYSE70 cells = assay: Colony formation assay; format: cell-based
Description: as §4

Structure (SMILES): CC(=O)N1CCC(c2cc(Nc3ccn(C)n3)nc(N3CCC(F)(F)C3)c2)CC1 [compound 101]
- Kd (DLK; in μM): > 10 µM
- Kd (LZK [1]; in μM, read-out: LZK KD): > 10 µM

- Kd (LZK [1]; read-out: Kd values): 0.44 µM
Structure (SMILES): CC(=O)NC12CC(n3cc(-c4cnc(N)c(C#N)n4)nc3C(O)C(C)C)(C1)C2 (stereo not drawn) [compound 45]

Structure (SMILES): CC(=O)N1CCC(c2cc(Nc3cnc(C)cn3)nc(N3CCC(F)(F)C3)c2)CC1 [compound 107]
- Phospho-JNK levels (LZK [2]): particularly effective

Structure (SMILES): Cc1cnc(Nc2cc(C3CCN(C4CCC4)CC3)cc(N3CCC(F)(F)C3)n2)cn1 [compound 162]
- dose-dependent inhibition of LZK (LZK [2]): dose-dependent inhibition

Structure (SMILES): c1nc(C2CC2)cnc1Nc1cc(C2CN(CC3CC3)C2)cc(N2CC3CCC3C2)n1 (stereo not drawn) [compound 228]
- Kd (LZK [1]; read-out: LZK KD): 0.007 µM

Structure (SMILES): CC(=O)N1CCC(c2cc(Nc3cnc(C)cn3)nc(N3CCOCC3)c2)CC1 [compound 191]
- Kd (DLK): 0.17 µM
- Kd (LZK [1]; read-out: LZK KD): 0.23 µM

Structure (SMILES): CC(=O)N1CCC(c2cc(Nc3nccnc3C)nc(N3CCC(F)(F)C3)c2)CC1 [compound 109]
- Kd (DLK; in μM): > 10 µM
- Kd (LZK [1]; in μM, read-out: LZK KD): > 10 µM

Structure (SMILES): CC(=O)N1CCC(c2cc(Nc3cncc(C)n3)nc(N3CCC(F)(F)C3)c2)CC1 [compound 108]
- Kd (DLK; in μM): > 10 µM
- Kd (LZK [1]; in μM, read-out: LZK KD): > 10 µM

Structure (SMILES): CC(=O)N1CCC(c2cc(Nc3cnc(C)cn3)nc(N3CC4CCC4C3)c2)CC1 (stereo not drawn) [compound 207]
- Kd (DLK): 0.18 µM
- selectivity for LZK over DLK (LZK [1]; from KD values): 180 fold
- Kd (LZK [1]; read-out: LZK KD): 0.00097 µM

Structure (SMILES): CC(=O)N1CCC(c2cc(Nc3ncccn3)nc(N3CCC(F)(F)C3)c2)CC1 [compound 117]
- Kd (DLK; in μM): > 10 µM
- Kd (LZK [1]; in μM, read-out: LZK KD): > 10 µM

Structure (SMILES): COc1cnc(Nc2cc(C3CCN(C(C)=O)CC3)cc(N3CCC(F)(F)C3)n2)cn1 [compound 115]
- Kd (LZK [1]; read-out: LZK KD): 0.3 µM

Structure (SMILES): CC(=O)N1CCC(c2cc(Nc3cn(C)cn3)nc(N3CCC(F)(F)C3)c2)CC1 [compound 114]
- Kd (DLK): 1.2 µM
- Kd (LZK [1]; read-out: LZK KD): 1.5 µM

Structure (SMILES): CC(C)C[C@@H](C=O)NC(=O)[C@H](CC(C)C)NC(=O)[C@H](CC(C)C)NC(=O)OCc1ccccc1 [MG132] (Cbz-Leu-Leu-Leu-aldehyde)
- c-MYC levels in cells depleted of LZK (c-MYC): rescued decreases in the c-MYC levels

- Kd (LZK [1]; read-out: Kd values): > 10 µM
Structure (SMILES): CC(=O)NC12CC(n3cc(-c4cnc(N)cn4)nc3C(O)C(C)C)(C1)C2 (stereo not drawn) [compound 46]

Structure (SMILES): Cc1cnc(Nc2cc(C3CCN(C4CCCC4)CC3)cc(N3CCC(F)(F)C3)n2)cn1 [compound 164]
- dose-dependent inhibition of LZK (LZK [2]): dose-dependent inhibition
- Phospho-JNK levels (LZK [2]): more effective than GNE-3511
- IC50 (LZK [2]; read-out: inhibition of LZK IC50): ~0.1 µM
- sensitivity (colony formation) (OVCAR5 cells): sensitive

- Mean permeability ([3]; PAMPA): 2.9021 10^−6 cm/sec
Structure (SMILES): CC(C)C(O)c1nc(-c2cnc(N)c(OC(F)(F)F)c2)cn1C12CC(N)(C1)C2 (stereo not drawn) [DLK-IN-3, reference compound]

Structure (SMILES): CC(=O)N1CCC(c2cc(Nc3cnc(C)cn3)nc(N3CCC4(CC3)CC4)c2)CC1 [compound 208]
- Kd (DLK): 0.1 µM

- Mean permeability ([3]; PAMPA): 0.5352 10^−6 cm/sec
Structure (SMILES): CC(=O)NC12CC(n3cc(-c4cnc(N)c(OC(F)(F)F)c4)nc3C(O)C(C)C)(C1)C2 (stereo not drawn) [DLK-IN-2, reference compound]

Structure (SMILES): CC(=O)N1CCC(c2cc(Nc3cnc(C)cn3)nc(N3CCC(F)(F)CC3)c2)CC1 [compound 192]
- Kd (DLK): 0.12 µM
- Kd (LZK [1]; read-out: LZK KD): 0.065 µM

Structure (SMILES): CC(=O)N1CCC(c2cc(Nc3cnc(C)cn3)nc(N3CC4CC(C4)C3)c2)CC1 [compound 204]
- Kd (LZK [1]; read-out: LZK KD): 0.008 µM

- Kd (DLK): 0.03 µM
Structure (SMILES): CC(=O)N1CC(c2cc(Nc3cnc(C4CC4)cn3)nc(N3CC4CC4C3)c2)C1 (stereo not drawn) [compound 218]

- Kd (DLK): 0.002 µM
Structure (SMILES): c1nc(C2CC2)cnc1Nc1cc(C2CCN(CC3CC3)CC2)cc(N2CC3CC3C2)n1 (stereo not drawn) [compound 216]
- sensitivity (colony formation) (KYSE70 cells): exquisitely sensitive
- sensitivity (colony formation) (OVCAR5 cells): exquisitely sensitive

Structure (SMILES): CC(=O)N1CC(c2cc(Nc3cnc(C)cn3)nc(N3CCC(F)(F)C3)c2)C1 [compound 165]
- increase of Kd for DLK over the parent (107) (DLK): 6 fold

Structure (SMILES): c1nc(C2CC2)cnc1Nc1cc(C2CN(CC3CC3)C2)cc(N2CC3CC3C2)n1 (stereo not drawn) [compound 219]
- sensitivity (colony formation) (KYSE70 cells): exquisitely sensitive
- sensitivity (colony formation) (OVCAR5 cells): exquisitely sensitive

Structure (SMILES): Cc1cnc(Nc2cc(C3CCN(C4COC4)CC3)cc(N3CCC(F)(F)C3)n2)cn1 [compound 163]
- Kd (LZK [1]; read-out: LZK KD): 0.02 µM

Structure (SMILES): CC(=O)N1CCC(c2cc(Nc3cc4[nH]ccc4cn3)nc(N3CCC(F)(F)C3)c2)CC1 [compound 104]
- Kd (DLK; in μM): > 10 µM
- Kd (LZK [1]; in μM, read-out: LZK KD): > 10 µM

Structure (SMILES): CC(=O)N1CCC(c2cc(Nc3cnc4ccccc4n3)nc(N3CCC(F)(F)C3)c2)CC1 [compound 112]
- Kd (DLK; in μM): > 10 µM
- Kd (LZK [1]; in μM, read-out: LZK KD): > 10 µM

Structure (SMILES): CC(=O)N1CCC(c2cc(Nc3cnc(C)cn3)nc(N3CCC4(CC4)C3)c2)CC1 [compound 201]
- Kd (DLK): 0.02 µM

Structure (SMILES): CC(=O)N1CCC(c2cc(Nc3cnc(C)cn3)nc(N(C)CC3CC3)c2)CC1 [compound 186]
- Kd (LZK [1]; read-out: LZK KD): 0.09 µM

Structure (SMILES): CC(=O)N1CCC(c2cc(Nc3cnccn3)nc(N3CCC(F)(F)C3)c2)CC1 [compound 100]
- Mean permeability [3]: 16.9436 10^−6 cm/sec
- PAMPA [3]: 16.94
- Inhibition of downstream JNK pathway activation (LZK [2]; ELISA assay): effective inhibitor

Structure (SMILES): CC(=O)N1CCC(c2cc(Nc3cnc(C)cn3)nc(N3CC4CC(C3)C4O)c2)CC1 (stereo not drawn) [compound 205]
- Kd (DLK): 0.1 µM

- Kd (LZK [1]; read-out: Kd values): 0.094 µM
Structure (SMILES): CC(=O)NC12CC(n3cc(-c4cnc(N)c(C(F)(F)F)n4)nc3C(O)C(C)C)(C1)C2 (stereo not drawn) [compound 44]
